Data reported in US20170296629A1, “INHIBITOR OF EXTRACELLULAR TRAP FORMATION IN LEUKOCYTE” (KEIO UNIVERSITY, priority 2014, published 2017).
Ends that are not written are not given here.

System: Healthy Individual's Peripheral Blood Neutrophil
Assay: Inhibition of NET formation in neutrophils pretreated with lactoferrin-derived peptide fragment; DNA concentration in culture supernatant (Picogreen)
Assay type: cell-based
Details: human neutrophils, pretreatment with peptide
Procedure: Effect of Inhibiting NET Formation Stimulation of Healthy Individual's Peripheral Blood Neutrophil by Pretreatment with Lactoferrin-derived Peptide Fragment
For each round of experiment, 15 ml to 20 ml of peripheral blood was collected from a healthy individual by using an EDTA-containing syringe (with a needle of 18 to 22 G). After collecting the blood, in a 15 ml conical tube charged with 3 ml of Mono-Poly Resolving Medium (Cat No. DSBN100, DS Pharma Biochemical Co., Ltd.), 3.5 ml of the whole blood was gently layered over a lower layer of Mono-Poly Resolving Medium. The resultant 15 ml conical tube was centrifuged with a swing centrifuge at room temperature (15 to 30° C.) at 400×g for 20 minutes, and the conical tube was then gently taken out. An uppermost brown plasma layer and a lymphocyte/monocyte layer thereunder were removed with an aspirator or the like. In addition, a transparent layer under the lymphocyte/monocyte layer was removed as much as possible. A pale pink layer under the transparent layer was taken out with a Pasteur pipette, and transferred, for washing neutrophils, to a test tube charged with phosphate buffered saline (PBS(−); 137 mM of sodium chloride, 2.7 mM of potassium chloride, 8.1 mM of disodium hydrogen phosphate dodecahydrate, and 1.47 mM of potassium dihydrogen phosphate). The test tube thus holding the neutrophils was centrifuged at room temperature (15 to 30° C.) at 200×g for 10 minutes. The test tube was taken out, and a supernatant was discarded. To the neutrophils held in the test tube, sterile water at 4° C. was added, and the resultant was allowed to stand still on ice for 30 seconds for hemolyzing erythrocytes mixed therein. After the hemolysis, 45 ml of PBS(−) was added thereto, and the resultant was centrifuged at 200×g for 10 minutes. […]
A culture supernatant was collected, centrifuged at 200×g for 10 minutes, and the thus obtained supernatant was transferred to a fresh microcentrifuge tube. The amount of DNA was measured by using Picogreen dsDNA assay reagent (P11496 Invitrogen) in accordance with the accompanying protocol.

| Substance | inhibition of the NET (FIG. 2) (FIG. 2) | inhibition of the NET formation, dependence on amount (FIG. 3) |
| --- | --- | --- |
| SEQ ID NO: 6: Bovine lactoferricin; basic peptide obtained by pepsin hydrolysis of bovine lactoferrin, also prepared by PH Japan (MFKCRRWQWRMKKLGAPSITCVRRAF; ends and bridges not checked; cysteine pairing not given here; listed as Bos taurus) | found to have the inhibiting effect | inhibited the NET formation in a volume-dependent manner |
| SEQ ID NO: 7: Human lactoferricin, basic peptide prepared by PH Japan (GRRRRSVQWCAVSQPEATKCFQWQRNMRKVRGPPVSCIKRDSPIQCIQA; listed as Homo sapiens) | – | inhibited the NET formation in a volume-dependent manner |
